Reference: ChEMBL document CHEMBL5113502, “Accommodation of ring C expanded deoxyvasicinone in the HDAC inhibitory pharmacophore culminates into a tractable anti-lung cancer agent and pH-responsive nanocarrier” (Eur J Med Chem, 2022)
Activity calls are given as the source filed them. No cut-off for these calls is given here.

What was measured:
Homo sapiens [1] = species: Homo sapiens; assay: Selectivity index, ratio of IC50 for HDAC 9 (unknown origin) to IC50 for HDAC 3 (unknown origin)
A549 [2] = assay: Induction of apoptosis in human A549 cells assessed as nuclear condensation at 0.1 to 1 uM after 24 hrs by fluorescence microscopic analysis; format: functional, cell-based; conditions: dose 0.1-1 µM
A549 [3] = assay: Induction of autophagy in human A549 cells by acridine orange and propidium iodide staining based fluorescence microscopic analysis; format: functional, cell-based; conditions: DDE = dose-dependent effect
Homo sapiens [4] = species: Homo sapiens; assay: Selectivity index, ratio of IC50 for HDAC9 (unknown origin) to IC50 for HDAC 1 (unknown origin)
Histone deacetylase 1 = Histone deacetylase 1 (Homo sapiens, UniProt Q13547); assay: Inhibition of HDAC1 (unknown origin) by colorimetric method
Histone deacetylase 1, sequence (Q13547 whole entry): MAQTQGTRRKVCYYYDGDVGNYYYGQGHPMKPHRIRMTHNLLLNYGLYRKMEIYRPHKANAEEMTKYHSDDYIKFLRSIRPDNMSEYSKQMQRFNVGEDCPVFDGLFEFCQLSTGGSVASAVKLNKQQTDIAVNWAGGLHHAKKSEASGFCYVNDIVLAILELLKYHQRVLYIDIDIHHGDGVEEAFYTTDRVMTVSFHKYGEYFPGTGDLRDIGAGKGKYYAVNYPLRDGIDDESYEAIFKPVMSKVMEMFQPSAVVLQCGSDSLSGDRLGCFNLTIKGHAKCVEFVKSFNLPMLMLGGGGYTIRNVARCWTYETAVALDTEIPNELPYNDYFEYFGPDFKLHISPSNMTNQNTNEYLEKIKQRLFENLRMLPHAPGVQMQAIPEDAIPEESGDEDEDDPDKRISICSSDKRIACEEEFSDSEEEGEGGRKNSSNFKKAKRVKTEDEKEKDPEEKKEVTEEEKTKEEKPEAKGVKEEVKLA

Histone deacetylase 4 = Histone deacetylase 4 (Homo sapiens, UniProt P56524); assay: Inhibition of HDAC4 (unknown origin) by colorimetric method
Histone deacetylase 4, sequence (P56524 whole entry): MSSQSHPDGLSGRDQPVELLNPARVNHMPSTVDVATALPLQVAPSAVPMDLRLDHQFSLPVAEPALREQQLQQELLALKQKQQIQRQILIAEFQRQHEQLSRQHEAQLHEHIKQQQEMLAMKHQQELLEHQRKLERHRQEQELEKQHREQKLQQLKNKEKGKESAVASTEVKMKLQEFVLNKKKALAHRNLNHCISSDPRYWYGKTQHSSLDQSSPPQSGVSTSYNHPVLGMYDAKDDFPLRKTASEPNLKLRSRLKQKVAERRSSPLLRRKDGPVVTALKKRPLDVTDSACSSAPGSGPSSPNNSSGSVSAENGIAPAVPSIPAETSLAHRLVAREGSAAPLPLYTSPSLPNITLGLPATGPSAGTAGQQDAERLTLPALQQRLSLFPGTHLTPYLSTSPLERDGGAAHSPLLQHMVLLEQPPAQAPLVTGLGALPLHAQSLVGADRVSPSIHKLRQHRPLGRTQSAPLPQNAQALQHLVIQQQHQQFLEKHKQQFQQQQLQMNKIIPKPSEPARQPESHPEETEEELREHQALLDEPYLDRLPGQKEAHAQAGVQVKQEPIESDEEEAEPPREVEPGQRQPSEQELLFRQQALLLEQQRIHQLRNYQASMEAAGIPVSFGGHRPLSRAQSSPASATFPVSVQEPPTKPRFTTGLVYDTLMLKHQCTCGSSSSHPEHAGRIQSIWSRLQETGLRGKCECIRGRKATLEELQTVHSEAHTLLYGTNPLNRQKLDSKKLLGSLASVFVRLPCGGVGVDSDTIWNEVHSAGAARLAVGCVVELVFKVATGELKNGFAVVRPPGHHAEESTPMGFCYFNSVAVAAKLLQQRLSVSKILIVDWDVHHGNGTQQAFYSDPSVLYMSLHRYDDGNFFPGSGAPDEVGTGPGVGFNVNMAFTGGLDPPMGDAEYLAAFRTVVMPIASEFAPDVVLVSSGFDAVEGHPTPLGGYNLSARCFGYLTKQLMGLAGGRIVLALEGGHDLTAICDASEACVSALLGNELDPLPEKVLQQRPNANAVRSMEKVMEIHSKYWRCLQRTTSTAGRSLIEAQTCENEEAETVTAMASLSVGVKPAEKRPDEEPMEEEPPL

Homo sapiens [5] = species: Homo sapiens; assay: Selectivity index, ratio of IC50 for HDAC8 (unknown origin) to IC50 for HDAC 1 (unknown origin)
Homo sapiens [6] = species: Homo sapiens; assay: Selectivity index, ratio of IC50 for HDAC6 (unknown origin) to IC50 for HDAC 3 (unknown origin)
A549 [7] = assay: Induction of apoptosis in human A549 cells assessed as cell shrinkage at 0.1 to 1 uM after 24 hrs by fluorescence microscopic analysis; format: functional, cell-based; conditions: dose 0.1-1 µM
A549 [8] = assay: Inhibition of HDAC1/HDAC3/HDAC6 in human A549 cells assessed as increase in alpha-tubulin-ack40 level by Western blot analysis; format: cell-based
Homo sapiens [9] = species: Homo sapiens; assay: Selectivity index, ratio of IC50 for HDAC 1 (unknown origin) to IC50 for HDAC 3 (unknown origin)
Histone deacetylase 8 = target: T1, Histone deacetylase 8 (Homo sapiens, UniProt Q9BY41); assay: Inhibition of HDAC8 (unknown origin) by colorimetric method
T1 sequence (Q9BY41 whole entry): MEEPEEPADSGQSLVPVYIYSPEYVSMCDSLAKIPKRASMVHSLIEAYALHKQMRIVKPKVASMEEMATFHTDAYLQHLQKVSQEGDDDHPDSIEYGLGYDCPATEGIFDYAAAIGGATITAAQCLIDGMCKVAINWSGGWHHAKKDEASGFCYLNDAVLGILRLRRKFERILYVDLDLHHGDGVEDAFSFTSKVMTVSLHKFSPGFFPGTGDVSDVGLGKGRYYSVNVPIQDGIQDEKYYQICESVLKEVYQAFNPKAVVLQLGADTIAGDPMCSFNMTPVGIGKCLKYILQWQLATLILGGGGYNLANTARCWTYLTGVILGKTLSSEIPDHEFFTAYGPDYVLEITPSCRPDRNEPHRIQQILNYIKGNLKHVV

A549 [10] = assay: Downregulation of HDAC6 expression in human A549 cells at 0.1 to 1 uM after 24 hrs by Western blot analysis; format: functional, cell-based; conditions: dose 0.1-1 µM
Homo sapiens [11] = species: Homo sapiens; assay: Selectivity index, ratio of IC50 for HDAC6 (unknown origin) to IC50 for HDAC 1 (unknown origin)
A549 [12] = assay: Induction of cell cycle arrest in human A549 cells assessed as accumulation at SubG1 phase at IC50 after 48 hrs by flow cytometry; format: functional, cell-based
A549 [13] = assay: Inhibition of HDAC1/HDAC3/HDAC6 in human A549 cells assessed as increase in H3 acK9 level by Western blot analysis; format: cell-based
A549 [14] = assay: Induction of apoptosis in human A549 cells assessed as […] deformation at 0.1 to 1 uM after 24 hrs by fluorescence microscopic analysis; format: functional, cell-based; conditions: dose 0.1-1 µM
Histone deacetylase 5 = Histone deacetylase 5 (Homo sapiens, UniProt Q9UQL6); assay: Inhibition of HDAC5 (unknown origin) by colorimetric method
Histone deacetylase 5, sequence (Q9UQL6 whole entry): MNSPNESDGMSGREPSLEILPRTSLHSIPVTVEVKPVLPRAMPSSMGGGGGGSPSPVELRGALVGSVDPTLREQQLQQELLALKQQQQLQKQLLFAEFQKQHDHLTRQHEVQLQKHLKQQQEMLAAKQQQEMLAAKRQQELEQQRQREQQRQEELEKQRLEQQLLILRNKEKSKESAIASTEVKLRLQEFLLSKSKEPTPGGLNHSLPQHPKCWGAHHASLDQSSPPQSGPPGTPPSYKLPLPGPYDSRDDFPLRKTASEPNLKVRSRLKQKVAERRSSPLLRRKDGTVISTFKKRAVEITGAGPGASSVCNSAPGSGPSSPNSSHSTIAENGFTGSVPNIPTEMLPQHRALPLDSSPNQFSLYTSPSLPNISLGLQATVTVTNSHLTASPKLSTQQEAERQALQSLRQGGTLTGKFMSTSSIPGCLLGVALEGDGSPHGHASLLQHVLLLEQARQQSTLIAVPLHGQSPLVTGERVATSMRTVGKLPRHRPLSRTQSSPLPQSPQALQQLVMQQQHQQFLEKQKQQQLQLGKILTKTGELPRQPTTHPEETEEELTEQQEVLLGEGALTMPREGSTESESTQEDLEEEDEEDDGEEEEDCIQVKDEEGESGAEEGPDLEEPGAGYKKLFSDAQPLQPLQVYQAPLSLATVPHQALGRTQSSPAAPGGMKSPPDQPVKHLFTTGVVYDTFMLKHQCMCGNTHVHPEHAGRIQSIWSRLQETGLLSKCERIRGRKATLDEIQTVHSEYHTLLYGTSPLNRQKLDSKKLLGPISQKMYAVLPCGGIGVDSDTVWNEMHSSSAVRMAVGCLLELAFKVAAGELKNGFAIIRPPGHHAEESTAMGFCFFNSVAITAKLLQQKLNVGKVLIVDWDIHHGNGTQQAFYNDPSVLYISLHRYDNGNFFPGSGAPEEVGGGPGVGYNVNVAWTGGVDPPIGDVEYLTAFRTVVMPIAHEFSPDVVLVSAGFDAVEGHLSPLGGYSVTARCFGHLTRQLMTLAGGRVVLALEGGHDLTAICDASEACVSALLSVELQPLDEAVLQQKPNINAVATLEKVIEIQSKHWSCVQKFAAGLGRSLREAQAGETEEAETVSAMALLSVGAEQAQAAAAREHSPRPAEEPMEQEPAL

A549 [15] = assay: Induction of apoptosis in human A549 cells assessed as apoptotic bodies formation after 24 hrs by fluorescence microscopic analysis; format: functional, cell-based; conditions: dose 0.1-1 µM, DDE = dose-dependent effect
Homo sapiens [16] = species: Homo sapiens; assay: Selectivity index, ratio of IC50 for HDAC 5 (unknown origin) to IC50 for HDAC 3 (unknown origin)
NCI-H727 = assay: Cytotoxicity against human NCI-H727 cells assessed as cell viability after 48 hrs by MTT assay; format: functional, cell-based; conditions: NCI-H727, 48 h
Histone deacetylase 9 = Histone deacetylase 9 (Homo sapiens, UniProt Q9UKV0); assay: Inhibition of HDAC9 (unknown origin) by colorimetric method
Histone deacetylase 9, sequence (Q9UKV0 whole entry): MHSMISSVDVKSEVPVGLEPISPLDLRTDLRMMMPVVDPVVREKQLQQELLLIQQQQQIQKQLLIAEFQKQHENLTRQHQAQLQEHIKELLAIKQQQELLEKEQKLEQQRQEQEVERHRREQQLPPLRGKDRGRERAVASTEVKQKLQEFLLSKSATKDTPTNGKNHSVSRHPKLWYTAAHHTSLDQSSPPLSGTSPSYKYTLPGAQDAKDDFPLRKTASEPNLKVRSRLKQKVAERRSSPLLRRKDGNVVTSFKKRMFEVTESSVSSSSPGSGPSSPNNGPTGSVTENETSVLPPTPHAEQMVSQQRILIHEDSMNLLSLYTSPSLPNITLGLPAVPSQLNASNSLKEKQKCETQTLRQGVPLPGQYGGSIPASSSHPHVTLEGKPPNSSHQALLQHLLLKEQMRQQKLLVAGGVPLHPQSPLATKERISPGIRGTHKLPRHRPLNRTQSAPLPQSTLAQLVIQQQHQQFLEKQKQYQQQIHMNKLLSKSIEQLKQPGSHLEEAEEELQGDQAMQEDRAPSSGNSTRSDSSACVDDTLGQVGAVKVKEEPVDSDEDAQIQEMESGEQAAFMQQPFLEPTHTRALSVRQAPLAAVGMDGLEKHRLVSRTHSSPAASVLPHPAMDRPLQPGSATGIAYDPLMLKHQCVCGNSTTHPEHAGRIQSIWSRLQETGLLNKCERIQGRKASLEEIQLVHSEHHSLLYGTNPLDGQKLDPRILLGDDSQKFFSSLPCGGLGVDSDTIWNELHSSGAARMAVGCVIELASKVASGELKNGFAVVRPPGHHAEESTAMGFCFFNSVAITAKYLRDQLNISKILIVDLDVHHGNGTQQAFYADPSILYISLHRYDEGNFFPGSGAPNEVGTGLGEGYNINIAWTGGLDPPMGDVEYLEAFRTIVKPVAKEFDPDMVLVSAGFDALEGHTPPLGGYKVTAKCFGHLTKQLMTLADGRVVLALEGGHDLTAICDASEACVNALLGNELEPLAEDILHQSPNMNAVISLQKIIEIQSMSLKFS

Homo sapiens [17] = species: Homo sapiens; assay: Selectivity index, ratio of IC50 for HDAC 2 (unknown origin) to IC50 for HDAC 1 (unknown origin)
Homo sapiens [18] = species: Homo sapiens; assay: Selectivity index, ratio of IC50 for HDAC 2 (unknown origin) to IC50 for HDAC 3 (unknown origin)
Homo sapiens [19] = species: Homo sapiens; assay: Selectivity index, ratio of IC50 for HDAC8 (unknown origin) to IC50 for HDAC 6 (unknown origin)
Histone deacetylase 2 = Histone deacetylase 2 (Homo sapiens, UniProt Q92769); assay: Inhibition of HDAC2 (unknown origin) by colorimetric method
Histone deacetylase 2, sequence (Q92769 whole entry): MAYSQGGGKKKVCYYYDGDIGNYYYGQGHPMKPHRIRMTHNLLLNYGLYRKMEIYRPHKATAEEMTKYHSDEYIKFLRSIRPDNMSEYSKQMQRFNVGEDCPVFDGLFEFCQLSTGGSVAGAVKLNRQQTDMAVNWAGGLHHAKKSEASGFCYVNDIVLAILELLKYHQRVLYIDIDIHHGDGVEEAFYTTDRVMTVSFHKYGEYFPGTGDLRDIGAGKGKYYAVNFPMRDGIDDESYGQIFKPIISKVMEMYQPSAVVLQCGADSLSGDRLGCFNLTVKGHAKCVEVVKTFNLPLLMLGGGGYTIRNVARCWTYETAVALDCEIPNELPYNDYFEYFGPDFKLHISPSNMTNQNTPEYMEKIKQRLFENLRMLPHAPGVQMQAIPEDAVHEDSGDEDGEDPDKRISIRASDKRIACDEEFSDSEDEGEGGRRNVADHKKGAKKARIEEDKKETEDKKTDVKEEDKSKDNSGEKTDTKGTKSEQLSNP

Homo sapiens [20] = species: Homo sapiens; assay: Selectivity index, ratio of IC50 for HDAC 8 (unknown origin) to IC50 for HDAC 3 (unknown origin)
Homo sapiens [21] = species: Homo sapiens; assay: Selectivity index, ratio of IC50 for HDAC4 (unknown origin) to IC50 for HDAC 6 (unknown origin)

`O=C(/C=C/c1ccc(CNc2ccc3nc4n(c(=O)c3c2)CCCCC4)cc1)NO` was tested, and the Ratio IC50 (Homo sapiens [1]) was 63.1, the Activity (A549 [2]) was “Active” and the Activity (A549 [3]) was “Dde”. The Ratio IC50 (Homo sapiens [4]) was 86.6, the IC50 (Histone deacetylase 1) was 49.9 nM and the IC50 (Histone deacetylase 4) was 1630 nM. The Ratio IC50 (Homo sapiens [5]) was 3.56, the Ratio IC50 (Homo sapiens [6]) was 0.188 and the Activity (A549 [7]) was “Active”. For the same compound, the inhibition (A549 [8]) was “Active”, the Ratio IC50 (Homo sapiens [9]) was 0.72 and the IC50 (Histone deacetylase 8) was 178 nM. The inhibition (A549 [10]) was “Active”, the Ratio IC50 (Homo sapiens [11]) was 0.25 and the Activity (A549 [12]) was “Active”. The inhibition (A549 [13]) was “Active”, the Activity (A549 [14]) was “Active” and the IC50 (Histone deacetylase 5) was 617 nM. The Activity (A549 [15]) was “Dde”, the Ratio IC50 (Homo sapiens [16]) was 9.01 and the IC50 (NCI-H727) was 960 nM. For the same compound, the IC50 (Histone deacetylase 9) was 4320 nM, the Ratio IC50 (Homo sapiens [17]) was 25.2 and the Ratio IC50 (Homo sapiens [18]) was 18.4. It also gave a Ratio IC50 (Homo sapiens [19]) of 13.7, an IC50 (Histone deacetylase 2) of 1260 nM and a Ratio IC50 (Homo sapiens [20]) of 2. It also gave a Ratio IC50 (Homo sapiens [21]) of 126.
